Test results reported in patent US7723088B2, “DNA sequences involved in prenylflavonoid biosynthesis in hops and their use in modifying prenylflavonoid production in plants” (priority 2005, dated 2010).
Entries after “also recorded” stand apart in the source; their conditions may differ.

molecular target: T1, HIOMT2 (OMT2) O-methyltransferase (Humulus lupulus, UniProt B0ZB56); assay: 14C-SAM methylation enzyme assay with recombinant HIOMT2 (OMT2) insect cell lysate; assay type: biochemical; settings: recombinant enzyme from Sf9 insect cell lysate, 14C-SAM methyl donor, ethyl acetate extract, scintillation counting
T1 construct: The open reading frame of each enzyme was cloned into the baculovirus expression vector pFastBacHT (Invitrogen); 6xHis with TEV site, from the pFastBacHT vector (own knowledge); made in house; host or cells: Spodoptera frugiperda (Sf9) insect cells, baculovirus; crude cell lysate
T1 sequence (B0ZB56 1-360): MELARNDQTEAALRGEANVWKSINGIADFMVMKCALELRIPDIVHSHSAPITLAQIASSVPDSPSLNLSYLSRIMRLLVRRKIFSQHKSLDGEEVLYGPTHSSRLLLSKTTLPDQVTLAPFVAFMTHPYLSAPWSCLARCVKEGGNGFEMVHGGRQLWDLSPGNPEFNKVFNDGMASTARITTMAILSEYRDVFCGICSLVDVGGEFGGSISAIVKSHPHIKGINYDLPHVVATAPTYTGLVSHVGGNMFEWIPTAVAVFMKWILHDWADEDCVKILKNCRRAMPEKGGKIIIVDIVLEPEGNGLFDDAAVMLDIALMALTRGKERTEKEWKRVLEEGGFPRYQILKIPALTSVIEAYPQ
Excerpt: (§1) The open reading frame of each enzyme was cloned into the baculovirus expression vector pFastBacHT (Invitrogen) and the resulting bacmid generated using the Bac-to-Bac system (Invitrogen). The bacmid was used to transfect Spodoptera frugiperda (Sf9) insect cells. After amplification of the baculovirus through several passages, insect cell monolayers were infected, cultivated for 2-4 days and then centrifuged to separate cells from culture media. Cell pellets were lysed and aliquots used directly in enzyme assay containing ^14C—S-adenosyl methionine (^14C-SAM) as a methyl donor and various phenolic and phenylpropanoid natural products as substrates. Methylation activity was measured by the extraction of the enzyme reaction with ethyl acetate and its analysis by scintillation counting. In this assay, ^14C-methylation of one of the proffered substrates is indicated by the presence of radioactivity in the ethyl acetate extract.

Question: With `O=c1c(-c2ccc(O)cc2)coc2cc(O)cc(O)c12` [genistein] as the molecule, how does the “methylation of substrate by OMT2” value read?
Answer: methylate

Question: For `Oc1cccc(O)c1` [resorcinol], which “methylation of substrate by OMT2” value is on record?
Answer: methylate

Question: `O=C(/C=C/c1ccc(O)c(O)c1)c1ccc(O)cc1O` [butein] was tested. Which “methylation of substrate by OMT2” value did it give?
Answer: methylate

Question: `O=C(/C=C/c1ccc(O)cc1)c1c(O)cc(O)cc1O` [chalconaringenin] was tested. Which “methylation of substrate by OMT2” value did it give?
Answer: methylate

Question: How did the “methylation of substrate by OMT2” value turn out when `CC(C)=CCc1c(O)cc(O)c(C(=O)/C=C/c2ccc(O)cc2)c1O` [desmethylxanthohumol] was run?
Answer: capable of using desmethylxanthohumol as a substrate; also recorded: methylate

Question: `Oc1ccccc1O` [catechol] was tested. Which “methylation of substrate by OMT2” value did it give?
Answer: methylate

Question: Which “methylation of substrate by OMT2” value does the source give for `COc1cc(O)c(CC=C(C)C)c(O)c1C(=O)C=Cc1ccc(O)cc1` [xanthohumol, 1-[2,4-dihydroxy-6-methoxy-3-(3-methylbut-2-enyl)phenyl]-3-(4-hydroxyphenyl)-prop-2-en-1-one] here?
Answer: methylate

Question: For `O=C(/C=C/c1ccc(O)cc1)c1ccccc1O` [2′,4-dihydroxychalcone], which “methylation of substrate by OMT2” value is on record?
Answer: methylate

Question: For `COc1ccccc1O` [guaiacol], which “methylation of substrate by OMT2” value is on record?
Answer: methylate

Question: For `Oc1ccc(C=Cc2cc(O)cc(O)c2)cc1` [resveratrol], which “methylation of substrate by OMT2” value is on record?
Answer: methylate

Question: How did the “methylation of substrate by OMT2” value turn out when `C=CCc1ccc(O)c(OC)c1` [eugenol] was run?
Answer: methylate

Question: For `Cc1cc(O)cc(O)c1` [orcinol], which “methylation of substrate by OMT2” value is on record?
Answer: methylate

Question: With `O=C(/C=C/c1ccc(O)cc1)c1ccc(O)cc1O` [isoliquiritigenin] as the molecule, how does the “methylation of substrate by OMT2” value read?
Answer: methylate

molecular target: T2, HIOMT1 (OMT1) O-methyltransferase (Humulus lupulus, UniProt B0ZB55, L311X); assay: 14C-SAM methylation enzyme assay with recombinant HIOMT1 (OMT1) insect cell lysate; assay type: biochemical; settings: crude insect cell lysate, 14C-SAM, radio-HPLC analysis; product xanthohumol
T2 construct: The open reading frame of each enzyme was cloned into the baculovirus expression vector pFastBacHT (Invitrogen); 6xHis with TEV site, from the pFastBacHT vector (own knowledge); made in house; host or cells: Spodoptera frugiperda (Sf9) insect cells, baculovirus; crude cell lysate
Experimental: FIG. 3. Enzymatic activity of HIOMT1 showing that this enzyme methylates desmethylxanthohumol to produce xanthohumol. […] Recombinant HIOMT1 was expressed in insect cells and crude cell lysate used for enzymatic assay. (A) Radio-HPLC analysis of reaction products from empty vector control lysate incubated with ^14C-SAM and desmethylxanthohumol. (B) Radio-HPLC analysis of reaction products from HIOMT1 lysate incubated with ^14C-SAM. (C) Radio-HPLC analysis of reaction products HIOMT1 lysate incubated with ^14C-SAM and desmethylxanthohumol showing that xanthohumol is formed (D) Reversed-phase HPLC analysis of authentic xanthohumol.
as §1

Question: Which “methylation by HIOMT1, reaction product by radio-HPLC (FIG. 3)” value does the source give for `CC(C)=CCc1c(O)cc(O)c(C(=O)/C=C/c2ccc(O)cc2)c1O` [desmethylxanthohumol] here?
Answer: methylates desmethylxanthohumol to form xanthohumol

same assay, conditions: recombinant enzyme from Sf9 insect cell lysate, 14C-SAM methyl donor, ethyl acetate extract, scintillation counting

Question: For `COc1cc(O)c(C(=O)/C=C/c2ccc(O)cc2)c(O)c1CC=C(C)C` [xanthogalenol], which “methylation of substrate by OMT1” value is on record?
Answer: methylate

Question: How did the “methylation of substrate by OMT1” value turn out when `CC(C)=CCc1c(O)cc(O)c(C(=O)/C=C/c2ccc(O)cc2)c1O` [desmethylxanthohumol] was run?
Answer: capable of using desmethylxanthohumol as a substrate; also recorded: methylate
